Data: patent US7846944B2, “Pyrazolo-pyridinone compounds and methods of use thereof” (Amgen Inc., priority 2007, dated 2010)

Assays:
recombinant human p38α = recombinant human p38α (Homo sapiens, UniProt Q16539); assay: Purified and activated recombinant human p38α HTRF kinase assay; assay type: biochemical; conditions: 1 nM p38α, 50 μM ATP, GST-ATF2 substrate, read-out: p38a IC50
Protocol: Purified and Activated Recombinant Human p38α Assay
• Kinase Reaction Buffer: Kinase reaction buffer for p38α HTRF assays consists of 50 mM Tris-pH 7.5, 5 mM MgCl2, 0.1 mg/mL BSA, 100 μM Na3VO4 and 0.5 mM DTT. • HTRF Detection Buffer: HTRF detection buffer contains 100 mM HEPES-pH 7.5, 100 mM NaCl, 0.1% BSA, 0.05% Tween-20, and 10 mM EDTA. • Serial Dilution of Compounds: Compounds were dissolved in 100% DMSO and serially diluted (3 fold, 10 point) in a polypropylene 96-well microtiter plate (drug plate). The final starting concentration of compounds in the p38α enzymatic assays was 1 μM. Columns 6 and 12 (HI controls and LO controls respectively) in the drug plate were reserved as controls and contained only DMSO. • Kinase Reaction The p38α kinase reactions were carried out in a polypropylene 96-well black round bottom assay plate in total volume of 30 μL kinase reaction buffer. Appropriate concentration of purified and activated enzyme (recombinant human) was mixed with indicated concentration of ATP and 100 nM GST-ATF2-Avitag, in the presence or absence (HI control) of Compound. See table below for actual concentrations. In the absence of substrate, the background was measured as LO control. The reaction was allowed to incubate for 1 hour at RT. • Assay Reagent Concentrations: The final reagent concentrations were 1 nM p38α and 50 μM ATP. […] After 60 minutes incubation at room temperature, the assay plate was read in a Discovery Plate Reader. The wells were excited with coherent 320 nm light and the ratio of delayed ([…] post excitation) emissions at […] (native europium fluorescence) and 665 nm (europium fluorescence transferred to allophycocyanin—an index of substrate phosphorylation) was determined (Park et al, 1999). • Data Analysis: The proportion of substrate phosphorylated in the kinase reaction in the presence of compound compared with that phosphorylated in the presence of DMSO vehicle alone (HI control) was calculated using the formula: % control (POC)=(compound−average LO)/(average HI−average LO)*100. Data (consisting of POC and inhibitor concentration in μM) was fitted to a 4-parameter equation (y=A+((B−A)/(1+((x/C)^D))), where A is the minimum y (POC) value, B is the maximum y (POC), C is the x (compound concentration) at the point of inflection and D is the slope factor, using a Levenburg-Marquardt non-linear regression algorithm.
The inhibition constant (Ki) of the inhibitor was estimated from the IC50 (compound concentration at the point of inflection C) using the Cheng-Prussof equation: Ki=IC50/(1+S/Km), where S is the ATP substrate concentration, and Km is the Michaelis constant for ATP as determined experimentally. All results were expressed as the mean±the standard error of the mean. Data acquisition and non-linear regression algorithms were performed using Activity Base v5.2 and XL-fit software v4.1 respectively. All data was archived using Activity Base v5.2 software.

[1] = tested on: TNF-α secretion by LPS-treated THP1 cells; assay: Lipopolysaccharide-activated THP1 cell TNF production assay; assay type: cell-based; conditions: Homo sapiens, THP-1; LPS, 3 hours, THP1 cells; read-out: IC50 in the THP-1 cellular TNF production assay
Protocol: Lipopolysaccharide-Activated THP1 Cell TNF Production Assay
THP1 cells were resuspended in fresh THP1 media (RPMI 1640, 10% heat-inactivated FBS, 1×PGS, 1×NEAA, plus 30 μM βME) at a concentration of 1.5×10^6 cells per mL. One hundred microliters of cells per well were plated in a polystyrene 96-well tissue culture plate. 1.5 micrograms per mL of bacterial LPS was prepared in THP1 media and transferred to the first 11 columns of a 96-well polypropylene plate. Column 12 contained only THP1 media for the LO control. Compounds were dissolved in 100% DMSO and serially diluted 3 fold in a polypropylene 96-well microtiter plate (drug plate). Columns 6 and 12 were reserved as controls (HI controls and LO controls respectively) and contained only DMSO. 10 μL of LPS followed by one microliter of inhibitor compound from the drug plate was transferred to the cell plate. The treated cells were induced to synthesize and secrete TNF-α in a 37° C. humidified incubator with 5% CO2 for 3 hours. Fifty microliters of conditioned media was transferred to a 96-well MULTI-ARRAY™ 96-well small spot plate—custom coated with MAB610 containing 100 μL of 2× Read Buffer P supplemented with 0.34 nM AF210NA polyclonal Ab labeled with ruthenium (MSD-Sulfo-TAG™-NHS ester). After an overnight incubation at room temperature with shaking, the reaction was read on the Sector Imager™ 6000. […] The amount of secreted TNF-α in the presence of AMG compounds compared with that in the presence of DMSO vehicle alone (HI control) was calculated using the formula: % control (POC)=(cpd−average LO)/(average HI−averageLO)*100. Data (consisting of POC and inhibitor concentration in μM) was fitted to a 4-parameter equation (y=A+((B−A)/(1+((x/C)^D))), where A is the minimum y (POC) value, B is the maximum y (POC), C is the x (cpd concentration) at the point of inflection and D is the slope factor) using a Levenburg-Marquardt non-linear regression algorithm.

Chain of recombinant human p38α (Q16539 whole entry): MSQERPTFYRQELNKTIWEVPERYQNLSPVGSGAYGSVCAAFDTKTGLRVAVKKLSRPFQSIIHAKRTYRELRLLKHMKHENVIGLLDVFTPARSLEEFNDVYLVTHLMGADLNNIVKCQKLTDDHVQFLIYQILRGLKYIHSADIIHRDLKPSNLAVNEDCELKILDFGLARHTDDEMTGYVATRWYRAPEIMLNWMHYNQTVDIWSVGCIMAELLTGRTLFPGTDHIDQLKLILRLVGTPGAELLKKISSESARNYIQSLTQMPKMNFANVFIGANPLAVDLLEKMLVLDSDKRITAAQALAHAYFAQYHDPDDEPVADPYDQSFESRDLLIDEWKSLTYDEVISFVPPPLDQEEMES

SMILES | IC50 (recombinant human p38α) [nM] | IC50 [1] [nM]
Cc1cnc(C(=O)NC2CC2)cc1-c1cc2cnn(-c3c(F)cccc3F)c2n(C)c1=O [Example 19, N-cyclopropyl-4-(1-(2,6-difluorophenyl)-7-methyl-6-oxo-6,7-dihydro-1H-pyrazolo[3,4-b]pyridin-5-yl)-5-methyl-2-pyridinecarboxamide] | 18 | ≤ 175
Cc1ccc(C(=O)Nc2nccs2)cc1-c1cc2cnn(-c3c(F)cccc3F)c2n(C)c1=O [Example 28, 3-(1-(2,6-difluorophenyl)-7-methyl-6-oxo-6,7-dihydro-1H-pyrazolo[3,4-b]pyridin-5-yl)-4-methyl-N-1,3-thiazol-2-ylbenzamide] | 1.1 | ≤ 175
Cc1ccc(C(=O)Nc2ccon2)cc1-c1cc2cnn(-c3c(F)cccc3F)c2n(C)c1=O [Example 18, 3-(1-(2,6-difluorophenyl)-7-methyl-6-oxo-6,7-dihydro-1H-pyrazolo[3,4-b]pyridin-5-yl)-N-3-isoxazolyl-4-methylbenzamide] | 3 | ≤ 175
Cc1ccc(C(=O)NC2CC2)cc1-c1cc2cnn(-c3ccccc3C)c2n(C)c1=O [Example 14, N-cyclopropyl-4-methyl-3-(7-methyl-1-(2-methylphenyl)-6-oxo-6,7-dihydro-1H-pyrazolo[3,4-b]pyridin-5-yl)benzamide] | 4.2 | ≤ 175
Cc1ccc(C(=O)NC2(C)CC2)cc1-c1cc2cnn(-c3c(F)cccc3F)c2n(C)c1=O [Example 30, 3-(1-(2,6-difluorophenyl)-7-methyl-6-oxo-6,7-dihydro-1H-pyrazolo[3,4-b]pyridin-5-yl)-4-methyl-N-(1-methylcyclopropyl)benzamide] | – | ≤ 175
Cc1c(F)cc(C(=O)NC2CC2)cc1-c1cc2cnn(C(C)C)c2n(C)c1=O [Example 17, N-cyclopropyl-3-fluoro-4-methyl-5-(7-methyl-1-(1-methylethyl)-6-oxo-6,7-dihydro-1H-pyrazolo[3,4-b]pyridin-5-yl)benzamide] | – | ≤ 175

The remaining lines, values ahead:

IC50 (recombinant human p38α) [nM] | IC50 [1] [nM] | SMILES
6.2 | ≤ 175 | Cc1ccc(C(=O)NC2CC2)cc1-c1cc2cnn(-c3cc(F)ccc3F)c2n(C)c1=O [Example 24, N-cyclopropyl-3-(1-(2,5-difluorophenyl)-7-methyl-6-oxo-6,7-dihydro-1H-pyrazolo[3,4-b]pyridin-5-yl)-4-methylbenzamide]
2.2 | ≤ 175 | Cc1c(F)cc(C(=O)NC2CC2)cc1-c1cc2cnn(-c3ccccc3F)c2n(C)c1=O [Example 9, N-cyclopropyl-3-fluoro-5-(1-(2-fluorophenyl)-7-methyl-6-oxo-6,7-dihydro-1H-pyrazolo[3,4-b]pyridin-5-yl)-4-methylbenzamide]
3.9 | ≤ 175 | Cc1c(F)cc(C(=O)NC2CC2)cc1-c1cc2cnn(-c3cc(F)ccc3F)c2n(C)c1=O [Example 23, N-cyclopropyl-3-(1-(2,5-difluorophenyl)-7-methyl-6-oxo-6,7-dihydro-1H-pyrazolo[3,4-b]pyridin-5-yl)-5-fluoro-4-methylbenzamide]
1.1 | ≤ 175 | Cc1ccc(C(=O)NC2(C)CC2)cc1-c1cc2cnn(-c3cc(F)ccc3F)c2n(C)c1=O [Example 25, 3-(1-(2,5-difluorophenyl)-7-methyl-6-oxo-6,7-dihydro-1H-pyrazolo[3,4-b]pyridin-5-yl)-4-methyl-N-(1-methylcyclopropyl)benzamide]
2.3 | ≤ 175 | Cc1ccc(C(=O)Nc2ccon2)cc1-c1cc2cnn(-c3cc(F)ccc3F)c2n(C)c1=O [Example 26, 3-(1-(2,5-difluorophenyl)-7-methyl-6-oxo-6,7-dihydro-1H-pyrazolo[3,4-b]pyridin-5-yl)-N-3-isoxazolyl-4-methylbenzamide]
– | ≤ 175 | Cn1c(=O)c(-c2cc(C(=O)NC3CC3)ccc2Cl)cc2cnn(-c3cc(F)ccc3F)c21 [Example 29, 4-chloro-N-cyclopropyl-3-(1-(2,5-difluorophenyl)-7-methyl-6-oxo-6,7-dihydro-1H-pyrazolo[3,4-b]pyridin-5-yl)benzamide]
